target: T1, p53 Y220C (Homo sapiens, UniProt P04637, Y220C); assay: In vitro DNA binding activity assay (HTRF / TR-FRET): stabilization of p53 Y220C and increase of its DNA binding activity; format: biochemical; conditions: recombinant His-tagged p53 Y220C DNA binding domain (aa 94-312), biotin-labeled consensus DNA, incubated at 27° C. or 29° C. for 60 min
T1 construct: The recombinant protein was a truncation mutant containing only amino acids 94-312 of p53; made in house; host or cells: E. coli
Outline: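 Homogeneous time-resolved fluorescence with E. coli-derived p53 Y220C and biotinylated consensus DNA. Room-temperature incubations of 15 and 20 min precede reading. SC150 denotes the compound concentration required for 50% increased DNA binding.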

T1 sequence (P04637 94-312, change not shown): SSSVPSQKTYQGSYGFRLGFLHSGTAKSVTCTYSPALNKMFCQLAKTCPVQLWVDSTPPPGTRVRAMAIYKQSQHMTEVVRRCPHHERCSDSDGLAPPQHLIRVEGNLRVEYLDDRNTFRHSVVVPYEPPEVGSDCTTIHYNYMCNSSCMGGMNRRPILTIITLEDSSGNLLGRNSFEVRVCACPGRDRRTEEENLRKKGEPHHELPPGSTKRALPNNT

SC150 (concentration of the compound required to increase the DNA binding activity by 50%), + (+ = 0 μM ≤ SC150 < 0.05 μM):
COc1cc(S(=O)(=O)Nc2cc(C)on2)ccc1NCC#Cc1cc2c(NC3CCS(=O)(=O)CC3)cccc2n1CC(F)(F)F [Compound 1040A, 4-[(3-{4-[(1,1-dioxo-1λ^6-thian-4-yl)amino]-1-(2,2,2-trifluoroethyl)-1H-indol-2-yl}prop-2-yn-1-yl)amino]-3-methoxy-N-(5-methyl-1,2-oxazol-3-yl)benzene-1-sulfonamide]
COc1cc(S(=O)(=O)NC2CCOCC2)ccc1NCC#Cc1cc2c(NC3CCS(=O)(=O)CC3)cccc2n1CC(F)(F)F [Compound 1041A, 4-[(3-{4-[(1,1-dioxo-1λ^6-thian-4-yl)amino]-1-(2,2,2-trifluoroethyl)-1H-indol-2-yl}prop-2-yn-1-yl)amino]-3-methoxy-N-(oxan-4-yl)benzene-1-sulfonamide]
COc1cc(S(=O)(=O)NCC(O)CO)ccc1NCC#Cc1cc2c(NC3CCS(=O)(=O)CC3)cccc2n1CC(F)(F)F (centres unmarked) [Compound 1042A, N-(2,3-dihydroxypropyl)-4-[(3-{4-[(1,1-dioxo-1λ^6-thian-4-yl)amino]-1-(2,2,2-trifluoroethyl)-1 H-indol-2-yl}prop-2-yn-1-yl)amino]-3-methoxybenzene-1-sulfonamide]
COc1cc(S(=O)(=O)N(C)CCN(C)C)ccc1NCC#Cc1cc2c(NC3CCS(=O)(=O)CC3)cccc2n1CC(F)(F)F [Compound 1043A, N-[2-(dimethylamino)ethyl]-4-[(3-{4-[(1,1-dioxo-1λ^6-thian-4-yl)amino]-1-(2,2,2-trifluoroethyl)-1H-indol-2-yl}prop-2-yn-1-yl)amino]-3-methoxy-N-methylbenzene-1-sulfonamide]
COc1cc(S(=O)(=O)N(C)C)ccc1NCC#Cc1cc2c(NC3CCS(=O)(=O)CC3)cccc2n1CC(F)(F)F [Compound 1044A, 4-[(3-{4-[(1,1-dioxo-1λ^6-thian-4-yl)amino]-1-(2,2,2-trifluoroethyl)-1H-indol-2-yl}prop-2-yn-1-yl)amino]-3-methoxy-N,N-dimethylbenzene-1-sulfonamide]
COc1cc(S(=O)(=O)N2CCN(C(C)=O)CC2)ccc1NCC#Cc1cc2c(NC3CCS(=O)(=O)CC3)cccc2n1CC(F)(F)F [Compound 1045A, 4-({2-[3-({4-[(4-acetylpiperazin-1-yl)sulfonyl]-2-methoxyphenyl}amino)prop-1-yn-1-yl]-1-(2,2,2-trifluoroethyl)-1H-indol-4-yl}amino)-1λ^6-thiane-1,1-dione]
COCCN(C)S(=O)(=O)c1ccc(NCC#Cc2cc3c(NC4CCS(=O)(=O)CC4)cccc3n2CC(F)(F)F)c(OC)c1 [Compound 1046A, 4-[(3-{4-[(1,1-dioxo-1λ^6-thian-4-yl)amino]-1-(2,2,2-trifluoroethyl)-1H-indol-2-yl}prop-2-yn-1-yl)amino]-3-methoxy-N-(2-methoxyethyl)-N-methylbenzene-1-sulfonamide]
COc1cc(S(=O)(=O)N2CC3(COC3)C2)ccc1NCC#Cc1cc2c(NC3CCS(=O)(=O)CC3)cccc2n1CC(F)(F)F [Compound 1047A, 4-[(2-{3-[(2-methoxy-4-{2-oxa-6-azaspiro[3.3]heptane-6-sulfonyl}phenyl)amino]prop-1-yn-1-yl}-1-(2,2,2-trifluoroethyl)-1H-indol-4-yl)amino]-1λ^6-thiane-1,1-dione]
